Read-outs that look alike come from different tables or passages of the source.
Experiments:
Lung_H1975 = test: Cell proliferation assay (ATPlite), H1975; format: cell-based; conditions: Homo sapiens, NCI-H1975; TABLE C; 72 hours, 0.5% fetal bovine serum, ATP content; read-out: IC50 grading, Lung_H1975
Method: (§1) A representative number of compounds were assayed against several different cell lines using the cell proliferation assay:
(§2) Cell Proliferation Assay:
(§3) Cancer cell lines were plated at 5,000 to 10,000 per well in 96-well flatted bottomed plates with various concentration of compounds. The cells were incubated with compounds for 72 hours in the presence of 0.5% of fetal bovine serum. Growth inhibition was accessed by adenosine triphosphate (ATP) content assay using Perkin Elmer ATPlite kit. ATPlite is an ATP monitoring system based on firefly luciferase. Briefly, 25 μl of mammalian cell lysis solution was added to 50 μl of phenol red-free culture medium per well to lyse the cells and stabilize the ATP. 25 μl of substrate solution was then added to the well and subsequently the luminescence was measured.

[1] = test system: Breast_MDAMB468 (MDA-MB-468, breast adenocarcinoma); test: Cell proliferation assay (ATPlite), MDA-MB-468; format: cell-based; conditions: Homo sapiens, TABLE C, 72 hours, 0.5% fetal bovine serum, ATP content, read-out: IC50 grading, Breast_MDAMB468
Method: as §1, §2
as §3, with “The cells were incubated with compounds for 72 hours in the presence of 0.5% of fetal bovine serum.” left out

in vivo = conditions: male, CD-1, mouse, ip; for AUC: AUC (h * ng/ml)
Method: Drug Preparation and Administration.
Blood and tissue Sample Collection.
Plasma Sample Extraction. Plasma samples were prepared by protein precipitation. An internal standard was added into plasma samples. […] The supernatant was then injected onto LC/MS/MS.
Samples were compared to standards made in plasma. These standards were prepared by serial dilution.
Tissue Sample Extraction. […] Tissues were homogenized in 0.8 ml water. An internal standard was added into the tissue homogenates.
LC/MS/MS Analytical Methods.
LC Conditions are shown below:

Abl Kinase = Abl Kinase (Homo sapiens, UniProt P00519); test: Kinase panel (TABLE F), Abl Kinase; format: biochemical
[2] = test system: Breast_SkBr3 (SKBr3, breast carcinoma); test: Cell proliferation assay (ATPlite), SkBr3; format: cell-based; conditions: Homo sapiens, SK-BR-3
Method: as §1, §2
as §3, with “The cells were incubated with compounds for 72 hours in the presence of 0.5% of fetal bovine serum.” left out

Pancreas_CFPAC = test: Cell proliferation assay (ATPlite), CFPAC; format: cell-based; conditions: TABLE C; 72 hours, 0.5% fetal bovine serum, ATP content; read-out: IC50 grading, Pancreas_CFPAC
Method: as §1, §2, §3

Lung_H1703 = test: Cell proliferation assay (ATPlite), H1703; format: cell-based; conditions: Homo sapiens, NCI-H1703; TABLE C; 72 hours, 0.5% fetal bovine serum, ATP content; read-out: IC50 grading, Lung_H1703
Method: as §1, §2, §3

Lyn Kinase = Lyn Kinase (Homo sapiens, UniProt P07948); test: Kinase panel (TABLE F), Lyn Kinase; format: biochemical
Pancreas_HPAC = test: Cell proliferation assay (ATPlite), HPAC; format: cell-based; conditions: Homo sapiens, TABLE C, 72 hours, 0.5% fetal bovine serum, ATP content, read-out: IC50 grading, Pancreas_HPAC
Method: as §1, §2, §3

[3] = test system: Prostate_PC3 (PC-3, prostate adenocarcinoma); test: Cell proliferation assay (ATPlite), PC3; format: cell-based
Method: as §1, §2
as §3, with “The cells were incubated with compounds for 72 hours in the presence of 0.5% of fetal bovine serum.” left out

Pancreas_BxPC3 = test: Cell proliferation assay (ATPlite), BxPC3; format: cell-based; conditions: Homo sapiens, BXPC-3; TABLE C; 72 hours, 0.5% fetal bovine serum, ATP content; read-out: IC50 grading, Pancreas_BxPC3
Method: as §1, §2, §3

Lung_H358 = test: Cell proliferation assay (ATPlite), H358; format: cell-based; conditions: Homo sapiens, NCI-H358; TABLE C; 72 hours, 0.5% fetal bovine serum, ATP content; read-out: IC50 grading, Lung_H358
Method: as §1, §2, §3

FLT-3 Kinase = FLT-3 Kinase (Homo sapiens, UniProt P36888); test: Kinase panel (TABLE F), FLT-3 Kinase; format: biochemical
VEGFR2 Kinase = VEGFR2 Kinase (Homo sapiens, UniProt P35968); test: Kinase panel (TABLE F), VEGFR2 Kinase; format: biochemical
Lung_H292 = test: Cell proliferation assay (ATPlite), H292; format: cell-based; conditions: Homo sapiens, NCI-H292; TABLE C; 72 hours, 0.5% fetal bovine serum, ATP content; read-out: IC50 grading, Lung_H292
Method: as §1, §2, §3

[4] = male, CD-1, mouse, in vivo, ip, 7 days
Method: 7-day-multiple dosing MTD in mice • a. CD-1 mice, male, 24-26 gram • b. Dosing at 0, 50, 100, 200 mg/kg/d ip • c. 6 mice per group • d. Blood and organs will be collected 2 hr after last dosing on Day 7 for hematology
Stock solution is diluted with 30% CAPTISOL before use.

Lung_H460 = test: Cell proliferation assay (ATPlite), H460; format: cell-based; conditions: Homo sapiens, NCI-H460; TABLE C; 72 hours, 0.5% fetal bovine serum, ATP content; read-out: IC50 grading, Lung_H460
Method: as §1, §2, §3

[5] = test system: Colon_HCT116 (HCT116, colon cancer); test: Cell proliferation assay (ATPlite), HCT116; format: cell-based; conditions: Homo sapiens, HCT-116; TABLE C; 72 hours, 0.5% fetal bovine serum, ATP content; read-out: IC50 grading, Colon_HCT116
Method: as §1, §2
as §3, with “The cells were incubated with compounds for 72 hours in the presence of 0.5% of fetal bovine serum.” left out

Ret Kinase = Ret Kinase (Homo sapiens, UniProt P07949); test: Kinase panel (TABLE F), Ret Kinase; format: biochemical
Pancreas_Capan1 = test: Cell proliferation assay (ATPlite), Capan1; format: cell-based; conditions: Homo sapiens, CAPAN-1; TABLE C; 72 hours, 0.5% fetal bovine serum, ATP content; read-out: IC50 grading, Pancreas_Capan1
Method: as §1, §2, §3

[6] = test system: Epidermoid_A431 (A431, epidermoid carcinoma); test: Cell proliferation assay (ATPlite), A431; format: cell-based; conditions: Homo sapiens, A-431
Method: as §1, §2
as §3, with “The cells were incubated with compounds for 72 hours in the presence of 0.5% of fetal bovine serum.” left out

Lyn Kinase, sequence (P07948 whole entry): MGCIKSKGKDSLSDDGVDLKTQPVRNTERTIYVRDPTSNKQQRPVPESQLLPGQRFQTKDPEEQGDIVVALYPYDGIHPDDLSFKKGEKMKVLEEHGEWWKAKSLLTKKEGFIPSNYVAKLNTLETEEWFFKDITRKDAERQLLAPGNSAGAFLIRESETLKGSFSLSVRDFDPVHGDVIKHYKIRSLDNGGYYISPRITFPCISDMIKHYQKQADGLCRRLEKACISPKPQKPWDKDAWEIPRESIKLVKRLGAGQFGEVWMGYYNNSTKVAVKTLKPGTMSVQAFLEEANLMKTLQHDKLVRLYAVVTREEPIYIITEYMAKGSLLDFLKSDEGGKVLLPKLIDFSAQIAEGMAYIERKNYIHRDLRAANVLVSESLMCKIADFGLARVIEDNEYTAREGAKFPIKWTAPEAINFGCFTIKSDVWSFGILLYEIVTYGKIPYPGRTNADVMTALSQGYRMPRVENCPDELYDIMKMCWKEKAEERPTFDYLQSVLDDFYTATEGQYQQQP
FLT-3 Kinase, sequence (P36888 27-993): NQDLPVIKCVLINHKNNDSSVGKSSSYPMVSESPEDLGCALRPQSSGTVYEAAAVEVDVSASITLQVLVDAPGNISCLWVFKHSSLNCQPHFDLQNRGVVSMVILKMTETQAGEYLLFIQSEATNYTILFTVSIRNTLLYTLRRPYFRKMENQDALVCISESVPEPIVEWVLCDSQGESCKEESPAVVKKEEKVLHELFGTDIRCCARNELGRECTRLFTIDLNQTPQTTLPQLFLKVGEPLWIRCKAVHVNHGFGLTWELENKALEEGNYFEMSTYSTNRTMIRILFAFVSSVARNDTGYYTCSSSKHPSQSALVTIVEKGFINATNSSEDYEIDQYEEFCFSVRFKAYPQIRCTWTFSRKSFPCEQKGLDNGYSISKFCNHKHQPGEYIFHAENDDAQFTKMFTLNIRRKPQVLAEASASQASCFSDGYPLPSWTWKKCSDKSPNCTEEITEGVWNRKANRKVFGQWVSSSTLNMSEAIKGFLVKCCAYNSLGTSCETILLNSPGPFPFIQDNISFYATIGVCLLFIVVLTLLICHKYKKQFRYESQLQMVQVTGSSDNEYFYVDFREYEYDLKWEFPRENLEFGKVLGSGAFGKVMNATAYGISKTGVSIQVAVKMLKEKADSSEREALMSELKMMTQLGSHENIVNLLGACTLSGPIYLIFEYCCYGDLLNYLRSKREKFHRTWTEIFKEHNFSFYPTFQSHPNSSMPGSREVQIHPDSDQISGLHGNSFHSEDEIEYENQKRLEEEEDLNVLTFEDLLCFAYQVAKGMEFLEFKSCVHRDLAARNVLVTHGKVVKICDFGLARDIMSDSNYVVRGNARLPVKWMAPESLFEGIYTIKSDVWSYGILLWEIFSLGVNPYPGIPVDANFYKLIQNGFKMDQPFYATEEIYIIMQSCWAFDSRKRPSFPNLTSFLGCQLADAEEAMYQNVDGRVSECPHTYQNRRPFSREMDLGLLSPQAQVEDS
VEGFR2 Kinase, sequence (P35968 20-1356): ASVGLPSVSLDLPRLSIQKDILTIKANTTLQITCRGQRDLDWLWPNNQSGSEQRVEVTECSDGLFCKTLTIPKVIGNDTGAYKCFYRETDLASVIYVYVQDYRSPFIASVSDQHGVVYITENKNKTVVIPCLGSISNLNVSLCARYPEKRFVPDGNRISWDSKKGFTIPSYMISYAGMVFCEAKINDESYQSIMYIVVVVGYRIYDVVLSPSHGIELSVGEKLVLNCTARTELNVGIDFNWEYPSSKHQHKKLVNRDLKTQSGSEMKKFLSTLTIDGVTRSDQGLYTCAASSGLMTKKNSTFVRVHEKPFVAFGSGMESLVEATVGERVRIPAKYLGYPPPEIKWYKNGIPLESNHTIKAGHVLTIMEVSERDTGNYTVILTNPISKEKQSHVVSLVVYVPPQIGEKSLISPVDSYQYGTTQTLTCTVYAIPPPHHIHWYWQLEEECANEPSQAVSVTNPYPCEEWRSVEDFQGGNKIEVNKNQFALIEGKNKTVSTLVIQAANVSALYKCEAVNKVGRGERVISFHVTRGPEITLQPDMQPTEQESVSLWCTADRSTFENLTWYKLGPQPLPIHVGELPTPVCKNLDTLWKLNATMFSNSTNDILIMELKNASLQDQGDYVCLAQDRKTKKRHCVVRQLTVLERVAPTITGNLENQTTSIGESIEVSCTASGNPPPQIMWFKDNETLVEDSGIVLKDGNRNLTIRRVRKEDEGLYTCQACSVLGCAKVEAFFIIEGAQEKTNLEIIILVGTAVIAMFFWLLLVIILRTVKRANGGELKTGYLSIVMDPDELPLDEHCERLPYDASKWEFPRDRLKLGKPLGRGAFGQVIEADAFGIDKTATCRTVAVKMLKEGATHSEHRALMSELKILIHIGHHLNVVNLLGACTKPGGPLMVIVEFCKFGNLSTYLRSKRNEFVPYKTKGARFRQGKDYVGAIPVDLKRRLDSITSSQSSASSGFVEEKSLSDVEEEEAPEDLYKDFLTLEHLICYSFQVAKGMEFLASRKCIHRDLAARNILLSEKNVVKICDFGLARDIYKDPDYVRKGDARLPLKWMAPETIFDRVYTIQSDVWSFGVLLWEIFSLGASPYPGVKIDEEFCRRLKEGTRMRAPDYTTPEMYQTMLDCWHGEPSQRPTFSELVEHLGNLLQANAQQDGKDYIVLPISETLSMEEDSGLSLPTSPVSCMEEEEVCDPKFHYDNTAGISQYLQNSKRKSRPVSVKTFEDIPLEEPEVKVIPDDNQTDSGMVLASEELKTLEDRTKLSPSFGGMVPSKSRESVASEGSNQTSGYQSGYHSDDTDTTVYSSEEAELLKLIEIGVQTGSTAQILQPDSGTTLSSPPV
Ret Kinase, sequence (P07949 29-1114): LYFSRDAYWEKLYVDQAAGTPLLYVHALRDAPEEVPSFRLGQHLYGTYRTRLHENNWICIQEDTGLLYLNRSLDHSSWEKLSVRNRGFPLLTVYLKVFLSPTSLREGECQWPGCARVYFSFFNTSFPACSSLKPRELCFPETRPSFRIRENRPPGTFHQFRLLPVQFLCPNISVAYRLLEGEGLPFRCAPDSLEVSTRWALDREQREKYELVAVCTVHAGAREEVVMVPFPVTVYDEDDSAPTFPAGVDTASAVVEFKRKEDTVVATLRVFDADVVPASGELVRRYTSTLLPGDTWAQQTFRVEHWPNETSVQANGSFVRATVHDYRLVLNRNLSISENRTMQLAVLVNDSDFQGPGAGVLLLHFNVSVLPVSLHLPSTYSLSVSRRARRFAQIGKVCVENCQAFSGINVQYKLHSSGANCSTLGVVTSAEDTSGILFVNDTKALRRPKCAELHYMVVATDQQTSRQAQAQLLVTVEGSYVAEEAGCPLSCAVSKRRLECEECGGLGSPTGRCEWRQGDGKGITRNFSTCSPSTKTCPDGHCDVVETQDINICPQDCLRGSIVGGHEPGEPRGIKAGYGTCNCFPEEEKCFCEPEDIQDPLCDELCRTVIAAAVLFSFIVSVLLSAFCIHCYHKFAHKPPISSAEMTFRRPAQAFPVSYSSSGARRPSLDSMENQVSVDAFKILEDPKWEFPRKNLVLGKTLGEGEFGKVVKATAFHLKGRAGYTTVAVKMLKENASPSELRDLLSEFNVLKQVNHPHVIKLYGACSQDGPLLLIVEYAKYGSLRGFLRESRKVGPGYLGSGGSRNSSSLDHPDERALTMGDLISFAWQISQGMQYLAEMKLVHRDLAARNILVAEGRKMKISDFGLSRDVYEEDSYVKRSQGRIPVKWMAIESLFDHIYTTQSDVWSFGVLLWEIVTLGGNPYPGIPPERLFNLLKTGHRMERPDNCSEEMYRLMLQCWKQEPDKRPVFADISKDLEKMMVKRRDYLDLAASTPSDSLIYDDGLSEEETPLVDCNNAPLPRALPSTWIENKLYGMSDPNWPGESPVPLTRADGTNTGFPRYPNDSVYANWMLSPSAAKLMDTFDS
Abl Kinase, sequence (P00519 whole entry): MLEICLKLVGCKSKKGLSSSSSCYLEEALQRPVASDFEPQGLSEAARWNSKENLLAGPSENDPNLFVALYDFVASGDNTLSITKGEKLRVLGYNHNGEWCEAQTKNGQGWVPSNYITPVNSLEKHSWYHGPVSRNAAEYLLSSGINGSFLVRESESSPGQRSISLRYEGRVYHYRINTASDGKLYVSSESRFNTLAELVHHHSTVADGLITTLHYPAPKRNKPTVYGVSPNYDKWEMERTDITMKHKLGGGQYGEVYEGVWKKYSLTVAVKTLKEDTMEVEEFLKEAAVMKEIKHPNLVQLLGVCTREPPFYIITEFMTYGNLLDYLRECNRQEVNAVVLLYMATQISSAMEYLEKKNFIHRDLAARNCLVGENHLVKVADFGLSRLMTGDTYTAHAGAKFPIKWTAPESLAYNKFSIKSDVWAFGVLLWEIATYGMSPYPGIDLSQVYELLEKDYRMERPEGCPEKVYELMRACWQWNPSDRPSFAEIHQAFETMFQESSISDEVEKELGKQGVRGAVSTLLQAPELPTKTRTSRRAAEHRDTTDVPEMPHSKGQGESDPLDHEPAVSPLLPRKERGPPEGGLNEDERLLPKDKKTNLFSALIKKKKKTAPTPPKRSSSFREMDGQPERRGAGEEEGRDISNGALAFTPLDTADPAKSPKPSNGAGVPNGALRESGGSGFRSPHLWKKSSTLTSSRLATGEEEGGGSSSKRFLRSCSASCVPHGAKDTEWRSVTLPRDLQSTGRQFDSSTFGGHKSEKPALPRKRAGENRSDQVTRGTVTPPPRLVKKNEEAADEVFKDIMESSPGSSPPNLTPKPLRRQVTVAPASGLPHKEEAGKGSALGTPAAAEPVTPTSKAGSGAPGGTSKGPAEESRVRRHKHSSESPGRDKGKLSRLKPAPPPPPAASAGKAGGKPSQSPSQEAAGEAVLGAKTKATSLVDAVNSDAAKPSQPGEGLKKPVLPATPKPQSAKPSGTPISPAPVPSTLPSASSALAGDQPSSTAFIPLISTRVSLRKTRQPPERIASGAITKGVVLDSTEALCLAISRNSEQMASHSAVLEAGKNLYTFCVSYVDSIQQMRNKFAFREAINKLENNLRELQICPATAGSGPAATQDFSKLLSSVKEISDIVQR

## C#Cc1cccc(Nc2ncnc3cc(OC)c(OCCCCCCC(=O)NO)cc23)c1 [Compound 12]
Lung_H1975
  IC50: 100 to 1000 nM
[1]
  IC50: < 100 nM
In vivo; 20 mg/kg
  AUC: 3750 ng·h/mL
In vivo; 60 mg/kg
  AUC: 5720 ng·h/mL
In vivo; 60 mg/kg, Cmax (uM)
  Cmax: 14.4 µM
Abl Kinase
  inhibition at 5 µM: 57%
[2]; TABLE C, 72 hours, 0.5% fetal bovine serum, ATP content, read-out: IC50 grading, Breast_SkBr3
  IC50: 100 to 1000 nM
[2]; TABLE D, Breast carcinoma, read-out: IC50 grading, SKBr3
  IC50: 50 to 500 nM
Pancreas_CFPAC
  IC50: 100 to 1000 nM
Lung_H1703
  IC50: 100 to 1000 nM
Lyn Kinase
  inhibition at 5 µM: 95%
Pancreas_HPAC
  IC50: 1000 to 10000 nM
[3]; TABLE C, 72 hours, 0.5% fetal bovine serum, ATP content, read-out: IC50 grading, Prostate_PC3
  IC50: 100 to 1000 nM
[3]; TABLE D, Prostate adenocarcinoma, read-out: IC50 grading, PC-3
  IC50: 500 to 5000 nM
Pancreas_BxPC3
  IC50: < 100 nM
Lung_H358
  IC50: 100 to 1000 nM
FLT-3 Kinase
  inhibition at 5 µM: 85%
VEGFR2 Kinase
  inhibition at 5 µM: 64%
Lung_H292
  IC50: < 100 nM
[4]
  dose without significant change in body weight: up to 100 mg/kg
Lung_H460
  IC50: 100 to 1000 nM
[5]
  IC50: 100 to 1000 nM
Ret Kinase
  inhibition at 5 µM: 93%
Pancreas_Capan1
  IC50: 100 to 1000 nM
[6]; TABLE C, 72 hours, 0.5% fetal bovine serum, ATP content, read-out: IC50 grading, Epidermoid_A431
  IC50: 100 to 1000 nM
[6]; TABLE D, Epidermoid carcinoma, read-out: IC50 grading, A431
  IC50: 50 to 500 nM

Source: patent US20080221132A1, “Multi-Functional Small Molecules as Anti-Proliferative Agents” (priority 2006, published 2008)
